{
  "source": "paper PMC9762331",
  "about": "(Cancer Discovery, 2021)",
  "key": {"[1]": {"system": "SW48 isogenic PIK3CA-mutant and parental WT cells", "assay": "Potency comparison in SW48 isogenic mutant versus WT cells", "format": "cell-based, human", "conditions": "for potency differential in mutant versus WT isogenic SW48 cells: viability EC50, mutant versus WT"}, "[2]": {"system": "primary human hepatocytes", "assay": "Cytotoxicity in primary human hepatocytes", "format": "cell-based", "conditions": "tested up to 100 μmol/L"}, "[3]": {"conditions": "letrozole ± palbociclib portion of the study; cited from earlier work"}, "[4]": {"system": "pAKT in HER2-amplified PIK3CA-mutant cells (HCC1954, HCC202, MDA-MB-453)", "assay": "pAKT Western blot time course", "format": "cell-based", "conditions": "0.5 μmol/L GDC-0077 or 1 μmol/L BYL719"}, "[5]": {"system": "p110a in PIK3CA-mutant breast cancer lines", "conditions": "treatment for 24 hours"}, "[6]": {"system": "HER2-positive PIK3CA-mutant breast tumor lines (n = 6)", "assay": "ATP cell viability, HER2-positive PIK3CA-mutant breast lines", "format": "cell-based", "conditions": "HER2 amplified PIK3CA-mutant cell lines, 5 days"}, "[7]": {"system": "HCC1954, KPL-4, and HCI-003 PDX", "assay": "Efficacy in PIK3CA-mutant xenograft and PDX models", "format": "in vivo, mouse", "conditions": "HCC1954, KPL-4, HCI-003 PDX; dosed orally and daily"}, "[8]": {"system": "HER2-negative PIK3CA-mutant breast tumor lines (n = 10)", "assay": "ATP cell viability, HER2-negative PIK3CA-mutant breast lines", "format": "cell-based", "conditions": "5 days"}, "[9]": {"system": "PIK3CA E545K-mutant MCF7 cells", "assay": "CyQuant growth rate inhibition", "format": "cell-based", "conditions": "all combination treatments (± E2, ± 0.15 μmol/L palbociclib)"}, "[10]": {"target": "H1047R mutant p110a in HCC1954 parental cells (Homo sapiens, UniProt P42336, H1047R)", "sequence (P42336 whole entry H1047R)": "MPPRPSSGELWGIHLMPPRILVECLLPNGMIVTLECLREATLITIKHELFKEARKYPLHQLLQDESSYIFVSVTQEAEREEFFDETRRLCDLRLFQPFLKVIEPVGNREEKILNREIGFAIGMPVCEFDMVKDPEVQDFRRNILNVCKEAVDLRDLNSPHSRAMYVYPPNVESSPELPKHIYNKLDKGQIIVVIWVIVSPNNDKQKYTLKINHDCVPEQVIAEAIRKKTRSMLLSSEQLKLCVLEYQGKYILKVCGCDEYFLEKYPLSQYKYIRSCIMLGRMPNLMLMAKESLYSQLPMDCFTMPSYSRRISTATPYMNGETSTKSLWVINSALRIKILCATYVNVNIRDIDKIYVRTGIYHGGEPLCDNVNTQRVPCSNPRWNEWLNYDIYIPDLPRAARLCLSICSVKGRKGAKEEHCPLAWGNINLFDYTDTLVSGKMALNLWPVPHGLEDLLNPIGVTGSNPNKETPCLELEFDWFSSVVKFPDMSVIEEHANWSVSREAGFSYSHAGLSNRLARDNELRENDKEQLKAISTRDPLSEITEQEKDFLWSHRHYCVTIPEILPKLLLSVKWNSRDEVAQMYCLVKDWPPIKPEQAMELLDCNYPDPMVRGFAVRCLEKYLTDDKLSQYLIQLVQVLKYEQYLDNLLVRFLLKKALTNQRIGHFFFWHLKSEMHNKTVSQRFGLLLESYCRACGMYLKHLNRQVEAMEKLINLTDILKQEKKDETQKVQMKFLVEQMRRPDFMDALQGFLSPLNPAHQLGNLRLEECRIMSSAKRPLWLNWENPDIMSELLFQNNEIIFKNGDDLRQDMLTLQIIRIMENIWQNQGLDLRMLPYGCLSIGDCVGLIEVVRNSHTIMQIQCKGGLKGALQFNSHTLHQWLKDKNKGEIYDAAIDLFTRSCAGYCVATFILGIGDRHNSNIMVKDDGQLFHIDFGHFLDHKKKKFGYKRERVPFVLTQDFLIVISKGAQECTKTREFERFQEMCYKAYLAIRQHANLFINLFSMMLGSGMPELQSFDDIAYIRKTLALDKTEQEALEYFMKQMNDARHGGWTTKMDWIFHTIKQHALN", "sequence (O00459 whole entry partner)": "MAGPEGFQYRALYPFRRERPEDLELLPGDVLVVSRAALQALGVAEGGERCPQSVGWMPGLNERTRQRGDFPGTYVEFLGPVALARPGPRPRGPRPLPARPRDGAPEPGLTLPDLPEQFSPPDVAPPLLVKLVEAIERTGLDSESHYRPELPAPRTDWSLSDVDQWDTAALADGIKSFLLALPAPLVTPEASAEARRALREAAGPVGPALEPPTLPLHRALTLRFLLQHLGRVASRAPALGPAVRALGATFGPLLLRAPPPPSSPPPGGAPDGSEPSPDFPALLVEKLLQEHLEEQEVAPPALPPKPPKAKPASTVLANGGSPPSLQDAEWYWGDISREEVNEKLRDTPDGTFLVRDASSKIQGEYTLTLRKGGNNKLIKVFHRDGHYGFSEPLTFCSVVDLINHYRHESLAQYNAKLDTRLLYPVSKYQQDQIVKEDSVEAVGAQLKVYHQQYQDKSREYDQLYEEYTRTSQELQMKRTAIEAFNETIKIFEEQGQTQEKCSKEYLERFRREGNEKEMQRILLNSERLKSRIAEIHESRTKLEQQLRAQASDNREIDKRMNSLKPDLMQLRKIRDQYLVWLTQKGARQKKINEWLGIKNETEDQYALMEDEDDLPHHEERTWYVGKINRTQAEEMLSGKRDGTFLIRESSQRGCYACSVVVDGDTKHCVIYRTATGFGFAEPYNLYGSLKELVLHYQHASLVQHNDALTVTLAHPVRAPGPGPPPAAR", "conditions": "24 hours, 500 nmol/L, P = 0.00016"}, "[11]": {"target": "membrane-associated p110a in p110a-mutant HCC1954 xenograft model (Homo sapiens, UniProt P42336, H1047R)", "sequence (P42336 whole entry H1047R)": "as the sequence (P42336 whole entry H1047R) above", "assay": "Membrane-associated p110a in HCC1954 xenograft tumors", "format": "in vivo, mouse"}, "[12]": {"target": "p110a protein in PIK3CA H1047R-mutant HCC1954 cells (Homo sapiens, UniProt P42336, H1047R)", "sequence (P42336 whole entry H1047R)": "as above", "assay": "p110a Western blot, HCC1954 cells", "format": "cell-based", "conditions": "treatment up to 8 hours"}, "[13]": {"target": "p110a in PIK3CA-WT HDQ-P1 cells (Homo sapiens, UniProt P42336)", "sequence (P42336 whole entry)": "as the sequence (P42336 whole entry H1047R) above, with R1047H counted along it", "sequence (P27986 whole entry partner)": "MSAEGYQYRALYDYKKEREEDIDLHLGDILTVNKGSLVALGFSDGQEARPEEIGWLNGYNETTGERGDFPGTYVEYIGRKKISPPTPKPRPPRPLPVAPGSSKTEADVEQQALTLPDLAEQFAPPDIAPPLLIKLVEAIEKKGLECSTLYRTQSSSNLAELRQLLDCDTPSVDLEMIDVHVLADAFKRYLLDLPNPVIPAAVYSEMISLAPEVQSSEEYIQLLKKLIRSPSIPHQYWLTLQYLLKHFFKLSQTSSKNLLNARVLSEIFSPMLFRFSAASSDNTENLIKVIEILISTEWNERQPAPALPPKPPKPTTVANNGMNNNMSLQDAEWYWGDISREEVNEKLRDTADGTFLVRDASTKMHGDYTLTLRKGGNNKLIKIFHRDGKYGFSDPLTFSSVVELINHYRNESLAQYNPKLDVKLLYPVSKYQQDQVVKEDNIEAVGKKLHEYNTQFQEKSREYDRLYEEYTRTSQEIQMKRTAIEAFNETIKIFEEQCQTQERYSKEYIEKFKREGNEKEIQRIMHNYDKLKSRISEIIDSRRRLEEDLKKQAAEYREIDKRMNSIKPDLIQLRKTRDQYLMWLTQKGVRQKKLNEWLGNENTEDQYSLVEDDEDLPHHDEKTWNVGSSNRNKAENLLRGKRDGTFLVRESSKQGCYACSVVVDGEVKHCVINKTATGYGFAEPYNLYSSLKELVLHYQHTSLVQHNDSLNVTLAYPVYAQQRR", "conditions": "Western blot, 8 hours"}},
  "note": "Entries after “also recorded” stand apart in the source; their conditions may differ.",
  "data": [
    {"compound": "Cc1nc(NC(=O)N2CCC[C@H]2C(N)=O)sc1-c1ccnc(C(C)(C)C(F)(F)F)c1", "note": "[Alpelisib, reference compound]", "values": [
      {"measurement": "potency differential in mutant versus WT isogenic SW48 cells", "setting": "[1]", "result": "not have a potency differential"},
      {"measurement": "cytotoxic effects in primary human hepatocytes", "setting": "[2]", "result": "no cytotoxic effects"}
    ]},
    {"compound": "C[C@H](Nc1ccc2c(c1)OCCn1cc(N3C(=O)OC[C@H]3C(F)F)nc1-2)C(N)=O", "note": "[GDC-0077]", "values": [
      {"measurement": "drug–drug interactions", "setting": "[3]", "result": "No drug–drug interactions were observed"},
      {"measurement": "pAKT / pathway inhibition over the 24-hour treatment time", "setting": "[4]", "result": "sustained inhibition of pAKT; also recorded: sustained pathway inhibition"},
      {"measurement": "p110a degradation at clinically relevant concentrations", "setting": "[5]", "result": "resulted in p110a degradation"},
      {"measurement": "cytotoxic effects in primary human hepatocytes", "setting": "[2]", "result": "no cytotoxic effects"},
      {"measurement": "fold difference between the mean IC50 values, GDC-0077 versus BYL719", "setting": "[6]", "result": "~20", "unit": "fold"},
      {"measurement": "tumor response at the MTD in PIK3CA-mutant xenograft and PDX models", "setting": "[7]", "result": "tumor regressions"},
      {"measurement": "fold difference between the mean IC50 values, GDC-0077 versus BYL719", "setting": "[8]", "result": "~6", "unit": "fold"},
      {"measurement": "GDC-0077 concentrations giving negative GR values (cytotoxic response)", "setting": "[9]", "result": "≥ 0.12", "unit": "µmol/L"},
      {"measurement": "mutant-specific (H1047R) p110a peptide by mass spectrometry", "setting": "[10]", "result": "loss of the mutant-specific peptide"},
      {"measurement": "p110a protein expression in HCC1954 xenograft tumors", "setting": "[11]; single oral dose of 50 mg/kg", "result": "depleted p110a protein expression for up to 8 hours"}
    ]},
    {"compound": "CC(C)n1ncnc1-c1cn2c(n1)-c1ccc(O[C@@H](C)C(N)=O)cc1OCC2", "note": "[GNE-326, (S)-2-((2-(1-Isopropyl-1H-1,2,4-triazol-5-yl)-5,6-dihydrobenzo[f]imidazo[1,2-d][1,4]oxazepin-9-yl)oxy)propanamide]", "values": [
      {"measurement": "potency differential in mutant versus WT isogenic SW48 cells", "setting": "[1]", "result": "not have a potency differential"}
    ]},
    {"compound": "CS(=O)(=O)N1CCN(Cc2cc3nc(-c4cccc5[nH]ncc45)nc(N4CCOCC4)c3s2)CC1", "note": "[Pictilisib, 2-(1H-indazol-4-yl)-6-(4-methanesulfonyl-piperazin-1-ylmethyl)-4-morpholin-4-yl-thieno[3,2-d]pyrimidine]", "values": [
      {"measurement": "potency differential in mutant versus WT isogenic SW48 cells", "setting": "[1]", "result": "comparable EC50"}
    ]},
    {"compound": "Cc1nc(-c2cn3c(n2)-c2ccc(-c4cnn(C(C)(C)C(N)=O)c4)cc2OCC3)n(C(C)C)n1", "note": "[Taselisib]", "values": [
      {"measurement": "potency (EC50) increase in PIK3CA-mutant cells versus parental WT SW48 cells", "setting": "[1]; H1047R or E545K knock-in versus parental", "result": 3, "unit": "fold"},
      {"measurement": "p110a degradation at clinically relevant concentrations", "setting": "[5]", "result": "resulted in p110a degradation"},
      {"measurement": "cytotoxic effects in primary human hepatocytes", "setting": "[2]", "result": "no cytotoxic effects"},
      {"measurement": "p110a protein level in HCC1954 cells", "setting": "[12]", "result": "dose-dependent depletion of p110a protein"},
      {"measurement": "p110a protein level in HDQ-P1 cells", "setting": "[13]", "result": "No significant change"},
      {"measurement": "mutant-specific (H1047R) p110a peptide by mass spectrometry", "setting": "[10]", "result": "loss of the mutant-specific peptide"},
      {"measurement": "membrane-associated p110a in HCC1954 xenograft tumors", "setting": "[11]; 4 hours after a single oral dose of 15 mg/kg", "result": "depleted"}
    ]}
  ]
}
